Reference: patent USRE31463E, “Radiopharmaceutical chelates and method of external imaging” (priority 1980, dated 1983)
Like-named read-outs stand apart in the source and are kept apart here.

Key:
[1] = mouse, in vivo, iv; for injected dose in the blood: 60 min
[2] = Biodistribution in mice after intravenous injection (organ activities by scintillation counter); conditions: i.v., 60 minutes

| injected dose in the intestines ([1]; 30 min) [%] | blood clearance [1] | injected dose in the blood [1] | Substance | route of elimination / renal clearance [1] | other results |
| --- | --- | --- | --- | --- | --- |
| 12 |  |  | cobalt-57 chelate of N-[N'-(2,6-dimethylphenyl) carbamoylmethyl] iminodiacetic acid [Example 11] |  | injected dose in the liver ([1]; 30 min): 28% |
|  |  |  | gallium-67 chelate of 8-hydroxyquinoline [Example 9] |  | injected dose in the blood [2]: 20%; injected dose in the intestines [2]: 13%; injected dose in the liver [2]: 25% |
|  |  |  | gallium-67 chelate of methyliminodiacetic acid [Example 15] | rapid renal clearance |  |
|  | rapid blood clearance | less than 6% | technetium-99m chelate of 10-carboxydecyliminodiacetic acid [Example 12] | eliminated through both kidneys and liver | persistent activity in organs [1]: persistent activity noted in the liver and lungs |
| 30 | rapid blood clearance | less than 5% | technetium-99m chelate of N-(o-bromobenzyl) iminodiacetic acid [Example 13] |  |  |
|  |  |  | technetium-99m chelate of nitrilotriacetic acid [Example 10] | rapidly clear through the kidneys to urine | injected dose found in the liver and intestines [1]: less than 5%; eliminated in urine ([1]; 1 h): 40% |
